A melting point compilation (Tetko et al.; mined from patent text by program, amines drawn as free bases though some values may be those of a salt)

SMILES	melting point
COc1ccc(-c2cnccn2)cc1	86 to 87 °C
Cc1cccc(NC(=O)CCCCl)c1CNc1cccn2c(C)c(C)nc12	138 to 140 °C
N#Cc1cc(-c2ccc(Cl)cc2)cnc1N	202 to 204 °C
CCCCc1sc2ccc([N+](=O)[O-])cc2c1C(=O)c1ccc(OCCCN(CCCC)CCCC)cc1	88 °C
CNc1c(NCCSCc2csc(CN(C)C)n2)c(=O)c1=O	163 to 167 °C
CNC(=O)c1ccc(C=CC(=O)NCC(=O)N(C)c2ccc(Cl)c(CBr)c2Cl)cc1	212 to 216 °C
Fc1ccc(-c2ncn(CCCCl)c2-c2ccncc2)cc1	139 to 140 °C
CC(C)(C)c1cc(C(c2cccc([N+](=O)[O-])c2)N2CCCCC2)cc(C(C)(C)C)c1O (stereo unspecified)	157 °C
CCCCOCCCNC(=O)C(C)(C(C)C)C(C)C	40 °C
CN1CC(=O)NC1=NC(=O)Nc1cccc([N+](=O)[O-])c1	182 to 188 °C
COc1nc(Br)cnc1NS(=O)(=O)c1cccc2c(NC(=O)OCc3ccccc3)cccc12	226 to 228 °C
COc1ccc(C(=O)NCCCCCCCCCCCNC(=O)c2ccc(OC)cc2)cc1	150 to 151 °C
CCC12CCC(=O)C3Oc4c(O)ccc5c4C31CCN(CC1CC1)C2C5 (stereo unspecified)	157 to 158 °C
CC(C)S(=O)(=O)c1cc(OCc2ccc(S(C)(=O)=O)cn2)c2[nH]nc(Nc3nccs3)c2c1	160 to 161 °C
CCOc1cc(-c2cc(C(F)(F)F)nc(-c3ccnc(-c4cccc(S(N)(=O)=O)c4)c3)n2)ccc1C(F)(F)F	224 °C
COC(=O)OCC(CO)CCn1cnc2cnc(N)nc21 (stereo unspecified)	129 to 132 °C
CCOC(=O)C1CCN(C(=O)OC)CC1=O (stereo unspecified)	36 to 38 °C
CCCCc1nc2c(N)nc3ccccc3c2n1CCCCO	184 to 186 °C
CNC(=O)OC1CC(C)(C)N(C)C(C)(C)C1	96 to 97 °C
CC(=O)Nc1ccc([N+](=O)[O-])cc1OCC1CO1 (stereo unspecified)	164 °C
COc1c(/C=C/c2ccc(NS(C)(=O)=O)cc2)cc(N2CCC(=O)NC2=O)cc1C(C)(C)C	260 to 261 °C

SMILES	melting point
COc1cccc(C2CCC(=O)N2)c1 (stereo unspecified)	84 to 85 °C
CCCCc1oc2ccccc2c1-c1ncc(-c2ccc3cc(OCc4nnn[nH]4)ccc3c2)o1	238 to 240 °C
COC(=O)c1ccccc1-c1cc(F)cc(OCc2ccc3c(-c4ccoc4)cc(C#N)nc3c2)c1	152 to 154 °C
CCCCN1CCn2c1nc(C(=O)NCc1ccc(F)cc1C(=O)NC)c(O)c2=O	175 to 177 °C
O=C(O)C=Cc1ccc(-c2ccc3ncnc(Nc4ccc(OCc5cccc(F)c5)c(Cl)c4)c3c2)s1	252 °C
CCN(CCO)CCCC1CCN(S(=O)(=O)c2ccc(C(F)(F)F)cc2)CC1	71.3 to 72.7 °C
COc1ccc2oc(Cc3cccc(Cl)c3)c(CC#N)c2c1	82 °C
O=C(C=Cc1ccc2c(c1)OCO2)c1cccc(OCCCCCBr)c1	87 to 88 °C
COc1ccc(-c2nc(OCC#N)c3cc(OC)ccc3c2[N+](=O)[O-])cc1	192 to 194 °C
CNC(=O)NC(C)C(C)CC(=O)NS(=O)(=O)c1ccc(C)cc1 (stereo unspecified)	120 to 125 °C
CCNc1nc(C)c(C(=O)c2ccc(Cl)c([N+](=O)[O-])c2)s1	195 °C
CON=c1cc(C)c2ccccc2[nH]c1=O	190 to 193 °C
CCN1c2ncc(/C=C/c3ccncc3)cc2C(=O)N(C)c2cccnc21	150 °C
COc1cccc(OC)c1Cc1c(O)ncnc1O	> 245 °C
Nc1c(-c2ccc(-c3ccc(F)cc3)c(F)c2)nc2ccc(F)cc2c1C(=O)O	245 to 247 °C
CC(C)(C)c1cc(Br)c2cc(C(C)(C)C)cc(Br)c2c1	226 °C
COCCS(=O)(=O)c1ccccc1S(N)(=O)=O	120 to 123 °C
CC(C)n1nc(-c2c(-c3ccccc3)nc(N)nc2-n2ccnc2)ccc1=O	255 to 258 °C
COc1cccc(OC)c1C(=O)Nc1nnc(-c2ccc(O)cc2)s1	> 260 °C
CN1CCCC1CCN1CCN(CCC2CCCN2C)C1=C(C#N)C#N (stereo unspecified)	121 to 123 °C
COc1cc(Nc2nccc(-c3cccc(OCCO)c3)n2)cc(OC)c1OC	70 °C

SMILES	melting point
NS(=O)(=O)c1cnc(-c2cn(-c3nc(-c4ccc(C(F)(F)F)cc4)cc(C(F)(F)F)n3)cn2)s1	264 °C
CN(C)S(=O)(=O)c1ccc(Oc2ccc(S(C)(=O)=O)cc2)cc1	128 to 130 °C
CC(C)(C)Oc1ccc(O)c(C(=O)O)c1	282 °C
Cc1cc(C)c(CC(=O)c2ccc(C(C)C)c(OS(N)(=O)=O)c2C(C)C)c(C)c1	159 to 161 °C
CCCCCC(O)(c1cncnc1)C(C)(C)C (stereo unspecified)	66 to 67 °C
CCCCc1nc2c(N)nc(C)c(C)c2n1CCCCNC(=O)Nc1ccccc1	196 to 197 °C
O=C(Nc1cccc(S(=O)(=O)N2CCOCC2)c1)c1cnn2c(C(F)F)cc(-c3ccc(Cl)c(Cl)c3)nc12	231 °C
Cc1ccc(S(=O)(=O)N2CCOC(C)(C)C2)cc1	95 to 97 °C
N#Cc1cc(C2=Nc3ccc(-n4cccc4)cc3NC(=O)C2)ccn1	243 to 244 °C
CS(=O)(=O)N1CC(=O)c2ccsc2C1	120 °C
CCCCCCCCCCC(=O)OC1CC(C)(C)N(CC#N)C(C)(C)C1	54 °C
c1ccc(SCCn2c(-c3ccccc3)nc3cc(CN4CCN(C(c5ccccc5)c5ccccc5)CC4)ccc32)cc1	118 to 125 °C
CC1CC2CCC=C3C=C(Cl)NCC1=C32 (stereo unspecified)	279 to 281 °C
NC(=O)/C=C1/c2cc(F)ccc2C(O)C1O (stereo unspecified)	212 to 220 °C
O=C(O)[C@@H](CCN1C(=O)c2ccccc2C1=O)Oc1c(Br)cc(-c2c3ccccc3cc3sc4ccccc4c23)cc1Br	222 to 223 °C
COCc1nc2c(NC(=O)C(C)(C)C)cccn2c1C	104 °C
CC1(NC(=NC#N)Nc2cccnc2)CCC1	210 to 212 °C
CCCCCCCc1noc(-c2ncn3c2CN(C)C(=O)c2c(Cl)cccc2-3)n1	108 to 110 °C
Cc1noc(NS(=O)(=O)c2ccccc2-c2ccc(CC(C)C)cc2NC=O)c1C	87 to 95 °C
COc1ccc(CNc2cnn[nH]2)cc1OC1CCCC1	113 to 114 °C

More lines, now with the values ahead:

melting point	SMILES
164 to 165 °C	Cc1nc2ccccc2c(=O)n1CCN1CCC(c2noc3cc(F)ccc23)CC1
112 to 116 °C	CC/C(CO)=C(/c1ccccc1)c1ccc(O)cc1
43 to 46 °C	OCCCCCc1ccc2ccccc2c1O
153 to 155 °C	O=C(NCCO)/C(=C/c1ccc(OC(F)F)cc1)NC(=O)c1ccc(OCCC2CC2)cc1
214 to 216 °C	O=C(Cc1c(-c2cccnc2)c2cc(CN3CCN(c4ccccc4)CC3)c(Cl)cc2oc1=O)Nc1ccc(Cl)cc1C(F)(F)F
61.5 to 62.5 °C	CCCCCCCCCCCCNC(=O)ON=C(C1=C(Br)C(=O)C(C)(C)O1)c1ccccc1
296 °C	O=C1CCC(N2Cc3c(O)cccc3C2=O)C(=O)N1 (stereo unspecified)
163 to 165 °C	O=C(c1ccccc1)c1ccc2n1CCCCC2C(=O)O (stereo unspecified)
140 to 142 °C	Nc1cccc(-c2ccc(CCN3CCN(c4nccn4-c4ccccc4)CC3)cc2)n1
92 to 94 °C	COC(=O)c1cccc(/C=C/c2cccc(OC)c2)c1
86 to 89 °C	O=Cc1sc2ccccc2c1-c1ccccc1
149 °C	CCOC(=O)N1CCC(Nc2nc3cccnc3n2Cc2ccco2)CC1
128 °C	O=S1(=O)c2cccc3cccc(c23)N1CCCN1CCN(c2ccccc2O)CC1
180 to 182 °C	COc1ccc(C(=O)C2C(=O)N(C(N)=O)c3ccc(Cl)cc32)s1 (stereo unspecified)
87 to 90 °C	O=C1c2ccccc2C(=O)N1CCCCc1ccccc1
221 °C	COc1ccc(NC(=O)c2ccncc2)c2c1oc1ccccc12
149 to 151 °C	Nc1nc(C[C@H](NC(=O)[C@H](Cc2ccccc2)NS(=O)(=O)N2CCOCC2)C(=O)O)cs1
129 to 131 °C	O=C(O)c1ccccc1C(=O)c1ccc(F)cc1F
205 °C	COc1cc(Cl)ccc1CN1C(=O)C(C)(c2cc(C(=O)N3CCCCC3)ccc2Cl)c2cc(Cl)ccc21 (stereo unspecified)
150 to 152 °C	CCCNC(=S)c1ccc2c(c1)N(C(C)CN1CCCC1)c1ccccc1S2 (racemic)

melting point	SMILES
147 to 149 °C	O=C(NCCN1CCc2ccc3c(c21)CCO3)C1CC1
> 260 °C	O=C1c2ccccc2C(=O)c2sc(-c3ccccn3)nc21
191 to 194 °C	O=C(Nc1cccc(-c2ccnc3c(C(=O)c4cccs4)cnn23)c1)c1cccnc1
201 to 202 °C	CC(=O)N1CCC2(CC1)CC(=O)c1c(ccc([N+](=O)[O-])c1O)O2
278 °C	Clc1nc(-n2cnc(-c3ccccc3)c2-c2ccccc2)c2[nH]cnc2n1
98 to 99 °C	NNc1cnc(-c2ccccc2)cn1
115 to 118 °C	O=C(O)Cc1cccc2ccoc12
237 to 238 °C	COc1ccc(C(=O)Nc2ccc3c(c2)CCC3=O)cc1
95 °C	O=[N+]([O-])c1ccccc1OCc1csc(-c2ccccc2)n1
183 °C	COc1cc(C(=O)c2ncc3ccccn23)ccc1[N+](=O)[O-]
208 to 210 °C	CC(C)(C)OC(=O)N1CCn2c(C#N)c(-c3cccc(F)c3)c(C(N)=O)c2C1
153 °C	COc1ccc(-c2ccc(C=NO)cc2)cc1OC1CCCC1
90 to 91 °C	CSC(=S)N1CCN(Cc2ccccc2N(C)C)CC1
124 to 126 °C	CSC(C(=O)c1cc(-c2ccccc2)on1)N1CCOCC1 (stereo unspecified)
184 to 185 °C	COc1ccc(NC(=O)c2c(Cl)cccc2Cl)cc1OC1CCCC1
170 °C	O=C(N1CCCC(c2cccc3[nH]ccc23)C1)C(F)(F)F (stereo unspecified)
115 to 116 °C	O=S(=O)(NC1CCN(S(=O)(=O)c2cccs2)C1)c1ccc(Cl)cc1 (stereo unspecified)
233 to 235 °C	Cn1c(S(=O)(=O)c2ccc(=O)[nH]n2)cc2ccccc21
168 to 169 °C	CC(C)(C)OC(=O)N1CCC(NC(=O)c2ccc(Cn3cccn3)cc2)CC1
